Read-outs that look alike come from different tables or passages of the source.
Experiments:
apotransferrin (apo-Tf) = molecular target: T1, apotransferrin (apo-Tf) (Homo sapiens, UniProt P02787); assay: Apo-Tf fluorescence quenching binding study; settings: for Ka (association binding constant), Apo-Tf / n1 (Number of Binding Sites), Apo-Tf / n2 (Hill Coefficient), Apo-Tf / Kd / fa (fraction of fluorophore accessible to the quencher), Apo-Tf / Kq (bimolecular quenching constant), Apo-Tf: 298 K; for fa (fraction of fluorophore accessible to the quencher), Apo-Tf / Ksv* (Stern–Volmer quenching constant), Apo-Tf: compound 0–8 µM; for Ksv* (Stern–Volmer quenching constant), Apo-Tf: Tris-HCl pH 7.4, 298 K; for Kq (bimolecular quenching constant), Apo-Tf: from Ksv* with τ0 = 10^−8 s
T1 construct: purchased Sigma-Aldrich Chemical Co. (Schnelldorf, Germany)
T1 sequence (P02787 20-698): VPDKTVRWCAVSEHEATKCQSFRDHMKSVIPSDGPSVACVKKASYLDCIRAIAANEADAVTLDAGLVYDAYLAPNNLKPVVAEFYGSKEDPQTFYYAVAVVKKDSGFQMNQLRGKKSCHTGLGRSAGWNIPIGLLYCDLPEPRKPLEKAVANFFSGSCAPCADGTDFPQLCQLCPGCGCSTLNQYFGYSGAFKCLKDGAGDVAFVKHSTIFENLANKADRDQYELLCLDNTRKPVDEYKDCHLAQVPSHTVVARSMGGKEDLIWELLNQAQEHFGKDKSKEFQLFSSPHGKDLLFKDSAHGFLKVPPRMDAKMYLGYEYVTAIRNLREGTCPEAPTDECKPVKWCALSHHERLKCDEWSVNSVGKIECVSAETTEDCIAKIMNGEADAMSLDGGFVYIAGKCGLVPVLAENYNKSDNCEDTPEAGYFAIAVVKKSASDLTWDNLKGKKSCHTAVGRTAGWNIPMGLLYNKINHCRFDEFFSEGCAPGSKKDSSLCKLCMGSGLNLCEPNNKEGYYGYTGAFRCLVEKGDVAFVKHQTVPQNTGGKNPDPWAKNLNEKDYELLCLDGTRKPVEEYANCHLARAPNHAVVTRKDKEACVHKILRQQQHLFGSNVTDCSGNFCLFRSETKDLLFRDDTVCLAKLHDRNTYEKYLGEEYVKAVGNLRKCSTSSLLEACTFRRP
Experimental: (§1) Using a Jasco FP 6500 spectrofluorometer (Jasco, Tokyo, Japan) and quartz cells with a 1 cm path length, the fluorescence spectra of HSA and apo-Tf were recorded in the presence and absence of the examined substances. The 2.5 mL samples containing 2.5 µM HSA or 1 µM apo-Tf were titrated by adding 5 µL of the tested substance at a time, a volume that corresponded to a 1 µM increase in concentration. The concentration range used for these experiments varied from 0 to 8 µM. The relevant spectra were collected in the emission domains of 300–500 nm (HSA) and 305–500 nm (apo-Tf) after 3 min of continuous stirring at room temperature, using excitation wavelengths of 280 nm (HSA) and 295 nm (apo-Tf).
(§2) Experiments were conducted in a pH = 7.4 Tris-HCl buffer (5 mM Tris-HCl/50 mM NaCl for HSA and 5 mM Tris-HCl/50 mM NaCl/25 mM NaHCO3 for apo-Tf).
(§3) The following modified Stern–Volmer equation has been used to calculate the Stern–Volmer constant, which will be denoted as KSV* in order to differentiate it from the Stern–Volmer constant calculated for the DNA binding experiments:(5) F0/F0−F=1/faKsv*[Q]+1/fa where F0 and F are the fluorescence intensities in the absence and presence of the tested compounds, fa is the fraction of fluorophore accessible to the quencher (the tested compounds), [Q] is the quencher concentration, and KSV* (M^−1) is the Stern–Volmer constant; the plot of F0/(F0 − F) against 1/[Q] yields KSV as the slope and fa as the y intercept.
(§4) Subsequently, the bimolecular quenching rate constant was obtained by using Equation (6):(6) Ksv^*=Kqτ0
(§5) Kq (M^−1·s^−1) is the bimolecular quenching rate constant and τ0 is the fluorophore’s lifespan in the absence of the investigated chemicals (10^−8 s). The value of Kq can be used to assess whether the quenching phenomena have an underlying static or dynamic mechanism.
(§6) Using the following equation, the affinity constant (Ka) and the number of binding sites (n) have been calculated: (7) lgF0−F/F=lgKa+nlg[Q]
(§7) The binding affinity, Kd, can be calculated using the quadratic function below:(8) F0−F/F0−Fb=[P]t+[Q]+Kd−([P]t+[Q]+Kd)^2−4[P]t[Q]/2[P]t where F and F0 are the fluorescence intensities of the protein in the presence and absence of the quencher, respectively, Fb is the fluorescence of a fully bound protein–quencher, [P]t is the total concentration of the protein, and [Q] is the concentration of the added quencher. Each binding isotherm was plotted against the total quencher concentration in solution as a function of bound to free protein (F/F0).
(§8) The isotherms were then fitted using the nonlinear regression function below:(9) F/F0= F1+(F2−F1)Kdn/Kdn+[Q]^n where n represents the Hill coefficient, F1 and F2 are the horizontal and vertical asymptotes, respectively. The Kd in Equation (9) is derived from the quadratic binding function (Equation (8)).
(§9) Data were collected in triplicate, averaged, and expressed as mean value ± standard deviation (SD). All graph fitting models were defined and built using OriginPro® 2018.

EB–DNA system (CT-DNA) = assay: Competitive binding assay with ethidium bromide (EB) through fluorescence spectroscopy; design: species or system calf; settings: EB 2 µM, CT-DNA 10 µM, compound 0–40 µM
Experimental: The fluorescence spectra were recorded using 1.6 mL samples containing 10 µM CT-DNA, 2 µM EB, and increasing amounts (0–40 µM with an increment of 5 µM) of tested compounds; the samples were prepared by keeping the components in contact for 10 min at room temperature, under continuous stirring and in the dark. The excitation wavelength was 500 nm, and the spectra were recorded between the wavelengths of 520 and 800 nm. A Jasco FP 6500 fluorometer and quartz cells with a 1 cm route length were employed. The classical Stern–Volmer equation (Equation (3)) was used to interpret the obtained data:(3) F0/F=1+KSV·[Q] F0 and F are the fluorescence intensities of the EB–DNA samples in the absence and presence of the tested compounds, respectively; KSV is the Stern–Volmer constant, which was computed as the slope from the plot of F0/F vs. [Q], where [Q] is the chemical concentration.
The binding ratio was plotted against the logarithm of the concentration in comparison with a control sample exposed solely to DMSO. (4) y=A1+(A2−A1)×x^n/K50^n+x^n
For fitting data points, the modified Hill function with offset (Origin®) was used: where y represents the binding ratio (F/F0), x represents the concentration, A1 represents the minimum of y values, A2 represents the maximum of y values, K50 represents the concentration corresponding to 50% binding or the half maximum binding constant, and n represents the Hill coefficient.

[1] = molecular target: T2, human serum albumin (HSA) (Homo sapiens, UniProt P02768); assay: HSA fluorescence quenching binding study; settings: for Ka (association binding constant), HSA / n1 (Number of Binding Sites), HSA / n2 (Hill Coefficient), HSA / Kd / fa (fraction of fluorophore accessible to the quencher), HSA / Kq (bimolecular quenching constant), HSA: 298 K; for fa (fraction of fluorophore accessible to the quencher), HSA / Ksv* (Stern–Volmer quenching constant), HSA: compound 0–8 µM; for Ksv* (Stern–Volmer quenching constant), HSA: Tris-HCl pH 7.4, 298 K; for Kq (bimolecular quenching constant), HSA: from Ksv* with τ0 = 10^−8 s
T2 construct: purchased Sigma-Aldrich Chemical Co. (Schnelldorf, Germany)
T2 sequence (P02768 25-609): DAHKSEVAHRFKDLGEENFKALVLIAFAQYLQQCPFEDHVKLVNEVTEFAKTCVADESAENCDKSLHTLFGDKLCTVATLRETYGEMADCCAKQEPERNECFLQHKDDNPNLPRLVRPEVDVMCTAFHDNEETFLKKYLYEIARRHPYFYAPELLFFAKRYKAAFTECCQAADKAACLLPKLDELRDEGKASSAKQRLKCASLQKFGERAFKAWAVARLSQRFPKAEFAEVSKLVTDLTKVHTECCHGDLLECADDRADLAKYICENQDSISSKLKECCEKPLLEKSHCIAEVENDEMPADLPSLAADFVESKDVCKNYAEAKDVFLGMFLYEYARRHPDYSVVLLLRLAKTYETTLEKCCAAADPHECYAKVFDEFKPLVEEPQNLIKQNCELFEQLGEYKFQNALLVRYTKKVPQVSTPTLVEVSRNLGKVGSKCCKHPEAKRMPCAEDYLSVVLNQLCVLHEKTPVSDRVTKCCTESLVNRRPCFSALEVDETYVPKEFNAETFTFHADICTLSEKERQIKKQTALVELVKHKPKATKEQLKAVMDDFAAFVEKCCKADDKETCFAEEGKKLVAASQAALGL
Experimental: as §1, §2, §3, §4, §5, §6, §7, §8, §9

[2] = test system: HUVEC (human umbilical vein endothelial cells); assay: MTS cytotoxicity assay, HUVEC normal cell line; assay type: cell-based; settings: 24 h of incubation
Experimental: (§10) LoVo, MDA-MB-231 and HUVEC human cell lines were purchased from American Type Culture Collection (ATCC). Cells were routinely maintained in culture either in culture flasks or seeded in plates, using Dulbecco’s modified Eagle medium/nutrient mixture F-12 (DMEM:F12) medium supplemented with […], 10% fetal calf serum (Sigma Aldrich, St. Louis, MO, USA), 100 units/mL penicillin, 100 μg/mL streptomycin and incubated at 37 °C in 5% CO2 humidified atmosphere.
(§11) Cytotoxicity studies were performed in 96-well microtiter plates with flat bottoms (Falcon, Teterboro, NJ, USA) using the CellTiter 96 Aqueous One Solution Cell Proliferation Assay (Promega, Madison, WI, USA), an MTS-based colorimetric assay. Metabolically active cells have the ability to reduce MTS [3-(4,5-dimethylthiazol-2-yl)-5-(3-carboxymethoxyphenyl)-2-(4-sulfophenyl)-2H-tetrazolium, inner salt], a yellow tetrazolium salt, to a colored formazan that is soluble in the culture medium. Briefly, 15 × 10^3 cells per well were cultured in 100 µL culture medium. After 24 h, adherent cells were treated with different concentrations of the studied compounds, as well as adriamycin (Adr) and cisplatin (Cis-Pt), used as positive controls for 24 h and 48 h, respectively. Each well was then filled with 20 µL of reagent containing MTS and PES (phenazine ethosulfate, a cationic dye with excellent chemical stability that binds to MTS and produces a stable solution). The resulting formazan was determined using a Tecan GENios Spectrophotometer (Tecan US, Durham, NC, USA) by measuring the absorbance at λ = 492 nm after incubation for 4 h at 37 °C with moderate agitation every 15 min. The cytotoxicity tests were performed in triplicate, with results reported as mean values with standard deviations (SD). The cytotoxicity of DMSO was also investigated under the same conditions, and no harmful effect was found at doses less than 1%.
(§12) Data were expressed as cell viability by comparing with untreated cells considered 100% viable, using the following formula:(1) Cell viability (%)=absorbance of treated cells−absorbance of culture medium/absorbance of untreated cells−absorbance of culture medium

[3] = test system: LoVo (human colorectal adenocarcinoma) cell line; assay: MTS cytotoxicity assay, LoVo cell line; assay type: cell-based; settings: 48 h of incubation
Experimental: as §10, §11, §12

[4] = apo-Tf 1 µM, read-out: Kd (dissociation constant), Apo-Tf
[5] = HSA 2.5 µM, read-out: Kd (dissociation constant), HSA

Structure (SMILES) | Ka (association binding constant), Apo-Tf (apotransferrin (apo-Tf); apo-Tf 1 µM) | n1 (Number of Binding Sites), Apo-Tf (apotransferrin (apo-Tf); apo-Tf 1 µM) | n2 (Hill Coefficient), Apo-Tf (apotransferrin (apo-Tf); apo-Tf 1 µM) | Kd (apotransferrin (apo-Tf); [4]) | fa (fraction of fluorophore accessible to the quencher), Apo-Tf (apotransferrin (apo-Tf); apo-Tf 1 µM) | Ksv* (Stern–Volmer quenching constant), Apo-Tf (apotransferrin (apo-Tf); apo-Tf 1 µM) | Kq (bimolecular quenching constant), Apo-Tf (apotransferrin (apo-Tf)) | EB Displacement Assay K50 (half maximum binding constant) (EB–DNA system (CT-DNA)) | KSV, Stern–Volmer quenching constant (EB–DNA) (EB–DNA system (CT-DNA)) | Ka (association binding constant), HSA ([1]; HSA 2.5 µM) | n1 (Number of Binding Sites), HSA ([1]; HSA 2.5 µM) | n2 (Hill Coefficient), HSA ([1]; HSA 2.5 µM) | Kd [1, 5] | fa (fraction of fluorophore accessible to the quencher), HSA ([1]; HSA 2.5 µM) | Ksv* (Stern–Volmer quenching constant), HSA ([1]; HSA 2.5 µM) | Kq (bimolecular quenching constant), HSA [1] | IC50 [2] | IC50 [3] | IC50 (μM) LoVo [3] | also measured
CCn1cc(C(=O)[O-])c(=O)c2ccc(C)nc21.CCn1cc(C(=O)[O-])c(=O)c2ccc(C)nc21.O.O.O.O.[Gd+3].[OH-] [Gd(nal)2, Gd(C12H11N2O3)2(OH)(H2O)·3H2O] | (3.46 ± 1.34) × 10^4 M^−1 | 0.94 ± 0.03 | 1.20 ± 0.40 | 8.87 ± 6.2 µM | 0.92 ± 0.07 | (0.78 ± 0.09) × 10^5 M^−1 | 7.8e+12 M⁻¹ s⁻¹ | 34.11 ± 8.90 µM | 10.47 ± 0.13 M^−1 (×10^3) | (15.52 ± 2.93) × 10^5 M^−1 | 1.15 ± 0.01 | 1.20 ± 0.23 | 4.79 ± 0.84 µM | 1.25 ± 0.03 | (1.51 ± 0.07) × 10^5 M^−1 | 1.51e+13 M⁻¹ s⁻¹ | > 200 µM | > 200 µM | not toxic | –
CCn1cc(C(=O)O)c(=O)c2ccc(C)nc21 [Nalidixic acid] | – | 0.79 ± 0.02 | 1.55 ± 0.37 | 6.55 ± 2.11 µM | 0.48 ± 0.03 | (1.02 ± 0.09) × 10^5 M^−1 | 1.02e+13 M⁻¹ s⁻¹ | 50.41 ± 9.60 µM | 9.87 ± 0.11 M^−1 (×10^3) | – | 1.03 ± 0.01 | 1.33 ± 0.29 | 5.69 ± 1.44 µM | 1.06 ± 0.02 | (1.25 ± 0.06) × 10^5 M^−1 | 1.25e+13 M⁻¹ s⁻¹ | – | – | not toxic | Kd (apotransferrin (apo-Tf); apo-Tf 1 µM, read-out: Ka (association binding constant), Apo-Tf): 323 µM; Kd ([1]; HSA 2.5 µM, read-out: Ka (association binding constant), HSA): 4.57 µM; IC50 ([2]; Homo sapiens): > 200 µM; IC50 ([3]; Homo sapiens): > 200 µM
CCn1cc(C(=O)[O-])c(=O)c2ccc(C)nc21.CCn1cc(C(=O)[O-])c(=O)c2ccc(C)nc21.O.[OH-].[Tb+3] [Tb(nal)2, Tb(C12H11N2O3)2(OH)(H2O)·1.5H2O] | (0.32 ± 0.08) × 10^4 M^−1 | 0.71 ± 0.02 | – | 8.01 ± 4.3 µM | 0.65 ± 0.02 | (2.23 ± 0.15) × 10^5 M^−1 | 2.23e+13 M⁻¹ s⁻¹ | 34.69 ± 11.18 µM | 9.14 ± 0.16 M^−1 (×10^3) | (11.52 ± 2.87) × 10^5 M^−1 | 1.12 ± 0.02 | 1.52 ± 0.09 | 3.99 ± 0.14 µM | 1.13 ± 0.02 | (1.92 ± 0.08) × 10^5 M^−1 | 1.92e+13 M⁻¹ s⁻¹ | > 200 µM | > 200 µM | not toxic | –
CCn1cc(C(=O)[O-])c(=O)c2ccc(C)nc21.CCn1cc(C(=O)[O-])c(=O)c2ccc(C)nc21.O.O.O.O.[Eu+3].[OH-] [Eu(nal)2, Eu(C12H11N2O3)2(OH)(H2O)·3H2O] | (1.02 ± 0.13) × 10^4 M^−1 | 0.80 ± 0.01 | – | 7.07 ± 6.13 µM | 0.71 ± 0.01 | (1.85 ± 0.06) × 10^5 M^−1 | 1.85e+13 M⁻¹ s⁻¹ | 34.75 ± 3.69 µM | 8.35 ± 0.13 M^−1 (×10^3) | (11.99 ± 1.38) × 10^5 M^−1 | 1.13 ± 0.01 | 1.14 ± 0.27 | 4.63 ± 0.97 µM | 1.17 ± 0.04 | (1.75 ± 0.11) × 10^5 M^−1 | – | > 200 µM | > 200 µM | not toxic | quenching effect on apo-Tf fluorescence peak (apotransferrin (apo-Tf); apo-Tf 1 µM, compound up to 8 µM): 41%; quenching effect on HSA fluorescence peak ([1]; HSA 2.5 µM, compound up to 8 µM): 67%
